# Laboratory results as given in patent US20110105326A1, “Method for Enhancing the Rainfastness of Glyphosate” (BASF SE, priority 2008, published 2011).
# What was measured:
# Format in all cases: in vivo
# Bidens pilosa (BIDPI) = assay: herbicidal action with/without simulated rainfall after treatment, Bidens pilosa; conditions: Example 6, carfentrazone 30 g/ha, glyphosate 1080 g/ha, 0.5% v/v Dash in Carfentrazone and mixture
# Procedure: (§1) The enhancement of the rainfastness of glyphosate was determined via the herbicidal activity of the mixture comprising glyphosate and the respective rainfastness enhancing herbicidal component B as well as of the single herbicidal components in relation to simulated rainfall at different time intervals.
# (§2) The evaluation of the damage caused by the method and the compositions the according to the present invention and the single herbicidal components was carried out using a scale from 0 to 100%, compared to the untreated control plots. Here, 0 means no damage and 100 means complete destruction of the plants of a respective weed or crop species.
# (§3) The application was performed with a fixed spayer system with air pressurization and with a tank spray volume of two liters. The speed of the spray device over the plants was adjusted for a spray volume of 200 I/ha. The spray device was a spray barr with four nozzles from the type Teejet XR 11002VS with a space of 50 cm between each nozzle.
# (§4) The application was performed at a weed stage of 6 to 8 leaves. After the application of the formulated herbicides the leaves were washed through rain of 20 mm using a fixed rain simulator system at following time interval: 15 min, 30 min, 1, 2, 3, 4 and 6 hours after treatment.
# [1] = tested on: Brachiaria decumbens (BRADE); assay: herbicidal action with/without simulated rainfall after treatment, Brachiaria decumbens; conditions: Example 8, carfentrazone 30 g/ha, glyphosate 1080 g/ha, 0.5% v/v Dash in Carfentrazone and mixture
# Procedure: as §1, §2, §3, §4
# [2] = tested on: Echinochloa colonum (ECHCO); assay: herbicidal action with/without simulated rainfall after treatment, Echinochloa colonum; conditions: Example 7, carfentrazone 30 g/ha, glyphosate 1080 g/ha, 0.5% v/v Dash in Carfentrazone and mixture
# Procedure: as §1, §2, §3, §4
# [3] = simulated rainfall 15 min after treatment, 1 DAA
# [4] = simulated rainfall 15 min after treatment, 2 DAA
# [5] = simulated rainfall 15 min after treatment, 3 DAA
# [6] = simulated rainfall 30 min after treatment, 1 DAA
# [7] = simulated rainfall 30 min after treatment, 2 DAA
# [8] = simulated rainfall 30 min after treatment, 3 DAA
# [9] = simulated rainfall 2 hours after treatment, 1 DAA
# [10] = simulated rainfall 2 hours after treatment, 2 DAA
# [11] = simulated rainfall 2 hours after treatment, 3 DAA
# [12] = simulated rainfall 6 hours after treatment, 1 DAA
# [13] = simulated rainfall 6 hours after treatment, 2 DAA
# [14] = simulated rainfall 6 hours after treatment, 3 DAA
# [15] = without simulated rainfall, 1 DAA
# [16] = without simulated rainfall, 2 DAA
# [17] = without simulated rainfall, 3 DAA
# [18] = simulated rainfall 15 min after treatment, 7 DAA
# [19] = simulated rainfall 2 hours after treatment, 7 DAA
# [20] = without simulated rainfall, 7 DAA
smiles,measurement,setting,value
"Cc1nn(-c2cc(CC(Cl)C(=O)O)c(Cl)cc2F)c(=O)n1C(F)F (centres unmarked) [Carfentrazone, carfentrazone]",herbicidal action against BIDPI,Bidens pilosa (BIDPI); [3],51%
same,herbicidal action against BIDPI,Bidens pilosa (BIDPI); [4],54.66%
same,herbicidal action against BIDPI,Bidens pilosa (BIDPI); [5],53.33%
same,herbicidal action against BIDPI,Bidens pilosa (BIDPI); [6],68.66%
same,herbicidal action against BIDPI,Bidens pilosa (BIDPI); [7],87.66%
same,herbicidal action against BIDPI,Bidens pilosa (BIDPI); [8],94.66%
same,herbicidal action against BIDPI,Bidens pilosa (BIDPI); [9],69.33%
same,herbicidal action against BIDPI,Bidens pilosa (BIDPI); [10],89%
same,herbicidal action against BIDPI,Bidens pilosa (BIDPI); [11],92.33%
same,herbicidal action against BIDPI,Bidens pilosa (BIDPI); [12],56%
same,herbicidal action against BIDPI,Bidens pilosa (BIDPI); [13],86.66%
same,herbicidal action against BIDPI,Bidens pilosa (BIDPI); [14],92.33%
same,herbicidal action against BIDPI,Bidens pilosa (BIDPI); [15],69.66%
same,herbicidal action against BIDPI,Bidens pilosa (BIDPI); [16],94.33%
same,herbicidal action against BIDPI,Bidens pilosa (BIDPI); [17],99%
same,herbicidal action against BRADE,[1]; [3],4%
same,herbicidal action against BRADE,[1]; [4],10.33%
same,herbicidal action against BRADE,[1]; [5],11.66%
same,herbicidal action against BRADE,[1]; [18],17.33%
same,herbicidal action against BRADE,[1]; [6],10.66%
same,herbicidal action against BRADE,[1]; [7],19.66%
same,herbicidal action against BRADE,[1]; [8],11.66%
same,herbicidal action against BRADE,"[1]; simulated rainfall 30 min after treatment, 7 DAA",18.66%
same,herbicidal action against BRADE,[1]; [9],15%
same,herbicidal action against BRADE,[1]; [10],14.33%
same,herbicidal action against BRADE,[1]; [11],13%
same,herbicidal action against BRADE,[1]; [19],16.66%
same,herbicidal action against BRADE,[1]; [12],25%
same,herbicidal action against BRADE,[1]; [13],29%
same,herbicidal action against BRADE,[1]; [14],27.66%
same,herbicidal action against BRADE,"[1]; simulated rainfall 6 hours after treatment, 7 DAA",26%
same,herbicidal action against BRADE,[1]; [15],3.66%
same,herbicidal action against BRADE,[1]; [16],18.33%
same,herbicidal action against BRADE,[1]; [17],24.33%
same,herbicidal action against BRADE,[1]; [20],40.33%
same,herbicidal action against ECHCO,[2]; [3],9%
same,herbicidal action against ECHCO,[2]; [4],33.33%
same,herbicidal action against ECHCO,[2]; [5],36%
same,herbicidal action against ECHCO,[2]; [18],56%
same,herbicidal action against ECHCO,[2]; [9],14%
same,herbicidal action against ECHCO,[2]; [10],32.22%
same,herbicidal action against ECHCO,[2]; [11],37.66%
same,herbicidal action against ECHCO,[2]; [19],50.33%
same,herbicidal action against ECHCO,[2]; [15],14.66%
same,herbicidal action against ECHCO,[2]; [16],54.66%
same,herbicidal action against ECHCO,[2]; [17],76.66%
same,herbicidal action against ECHCO,[2]; [20],76%
